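In this assay, cells in 96-well plates receive the compound at five concentrations for 48 hours. Endpoints are linearly interpolated between the surrounding concentrations. GI50 is the concentration that inhibits growth by half. TGI marks complete inhibition of growth.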
Columns and labels:
Experiment in all cases: NCI anticancer screen, dose series, 48 h
[1] = test system: 786-0 renal
[2] = test system: A498 renal
[3] = test system: A549 NSCLC
[4] = test system: ACHN renal
[5] = test system: BT-549 breast
[6] = test system: CAKI-1 renal
[7] = test system: CCRF-CEM leukemia
[8] = test system: COLO 205 colon
[9] = test system: DU-145 prostate
[10] = test system: EKVX NSCLC
[11] = test system: HCC-2998 colon
[12] = test system: HCT-116 colon
[13] = test system: HCT-15 colon
[14] = test system: HL-60(TB) leukemia
[15] = test system: HOP-62 NSCLC
[16] = test system: HOP-92 NSCLC
[17] = test system: HS 578T breast
[18] = test system: HT29 colon
[19] = test system: IGROV1 ovarian
[20] = test system: K-562 leukemia
[21] = test system: KM12 colon
[22] = test system: LOX IMVI melanoma
[23] = test system: M14 melanoma
[24] = test system: MALME-3M melanoma
[25] = test system: MCF7 breast
[26] = test system: MDA-MB-231 breast
[27] = test system: MDA-MB-435
[28] = test system: MOLT-4 leukemia
[29] = test system: NCI-H226 lung
[30] = test system: NCI-H23 lung
[31] = test system: NCI-H460 lung
[32] = test system: NCI-H522 lung
[33] = test system: NCI/ADR-RES ovarian
[34] = test system: OVCAR-3 ovarian
[35] = test system: OVCAR-5 ovarian
[36] = test system: OVCAR-8 ovarian
[37] = test system: PC-3 prostate
[38] = test system: RPMI-8226 leukemia
[39] = test system: RXF 393 renal
[40] = test system: SF-268 CNS
[41] = test system: SF-295 CNS
[42] = test system: SF-539 CNS
[43] = test system: SK-MEL-2 melanoma
[44] = test system: SK-MEL-28 melanoma
[45] = test system: SK-MEL-5 melanoma
[46] = test system: SK-OV-3 ovarian
[47] = test system: SN12C renal
[48] = test system: SNB-19 CNS
[49] = test system: SNB-75 CNS
[50] = test system: SR leukemia
[51] = test system: SW-620 colon
[52] = test system: T-47D breast
[53] = test system: TK-10 renal
[54] = test system: U251 CNS
[55] = test system: UACC-257 melanoma
[56] = test system: UACC-62 melanoma
[57] = test system: UO-31 renal
[58] = test system: OVCAR-4 ovarian

## Cn1cc(-c2nc3c(F)cc4[nH]ncc4c3c3c2CCCC3)c(C(F)(F)F)n1
[1]
  GI50: 10.7 µM
  TGI: 27.7 µM
[2]
  GI50: 1.7 µM
  TGI: 4.88 µM
[3]
  GI50: 5.7 µM
  TGI: 59.4 µM
[4]
  GI50: 5.05 µM
  TGI: > 100 µM
[5]
  GI50: 2620 nM
  TGI: 15.4 µM
[6]
  GI50: 3330 nM
  TGI: > 100 µM
[7]
  GI50: 4660 nM
  TGI: > 100 µM
[8]
  GI50: 19.6 µM
  TGI: 57.1 µM
[9]
  GI50: 10.9 µM
  TGI: 77.7 µM
[10]
  GI50: 9.47 µM
  TGI: 36.6 µM
[11]
  GI50: 16.4 µM
  TGI: 49.3 µM
[12]
  GI50: 4300 nM
  TGI: 22.1 µM
[13]
  GI50: 14.2 µM
  TGI: > 100000 nM
[14]
  GI50: 5.5 µM
  TGI: 28.2 µM
[15]
  GI50: 6.22 µM
  TGI: 44 µM
[16]
  GI50: 19.6 µM
  TGI: > 100 µM
[17]
  GI50: 4.59 µM
  TGI: 27.2 µM
[18]
  GI50: 9.05 µM
  TGI: > 100 µM
[19]
  GI50: 4.15 µM
  TGI: 28.7 µM
[20]
  GI50: 8.25 µM
  TGI: > 100 µM
[21]
  GI50: 2850 nM
  TGI: > 100 µM
[22]
  GI50: 7.8 µM
  TGI: 25 µM
[23]
  GI50: 8.54 µM
  TGI: 44.2 µM
[24]
  GI50: 8.87 µM
  TGI: 34.2 µM
[25]
  GI50: 5.38 µM
  TGI: 45.4 µM
[26]
  GI50: 13.1 µM
  TGI: > 100 µM
[27]
  GI50: 5.36 µM
  TGI: > 100 µM
[28]
  GI50: 4200 nM
  TGI: 40.4 µM
[29]
  GI50: 22.7 µM
  TGI: 67.2 µM
[30]
  GI50: 8.73 µM
  TGI: > 100 µM
[31]
  GI50: 10.4 µM
  TGI: 33.9 µM
[32]
  GI50: 3450 nM
  TGI: 19.6 µM
[33]
  GI50: 15.8 µM
  TGI: > 100 µM
[34]
  GI50: 23.2 µM
  TGI: 75.8 µM
[35]
  GI50: 19.2 µM
  TGI: 86.6 µM
[36]
  GI50: 15.3 µM
  TGI: > 100 µM
[37]
  GI50: 14.6 µM
  TGI: > 100 µM
[38]
  GI50: 11.5 µM
  TGI: > 100 µM
[39]
  GI50: 2670 nM
  TGI: 12.2 µM
[40]
  GI50: 12 µM
  TGI: 55.3 µM
[41]
  GI50: 9.57 µM
  TGI: 69.8 µM
[42]
  GI50: 7.55 µM
  TGI: 22.8 µM
[43]
  GI50: 13 µM
  TGI: 30.5 µM
[44]
  GI50: 12.8 µM
  TGI: 74.8 µM
[45]
  GI50: 9.12 µM
  TGI: 22.9 µM
[46]
  GI50: 6.85 µM
  TGI: 38.5 µM
[47]
  GI50: 8.25 µM
  TGI: 81.8 µM
[48]
  GI50: 26.8 µM
  TGI: > 100 µM
[49]
  GI50: 3.69 µM
  TGI: 16.9 µM
[50]
  GI50: 5.25 µM
  TGI: > 100 µM
[51]
  GI50: 11.3 µM
  TGI: 48.7 µM
[52]
  GI50: 9.51 µM
  TGI: 76.9 µM
[53]
  GI50: 10.1 µM
  TGI: 75 µM
[54]
  GI50: 18.2 µM
  TGI: 56.9 µM
[55]
  GI50: 25.9 µM
  TGI: > 100 µM
[56]
  GI50: 5.54 µM
  TGI: 28.3 µM
[57]
  GI50: 4.26 µM
  TGI: 19.5 µM

## COC1=CC(c2ccc[nH]2)=N/C1=C\c1[nH]c(C)c(C(=O)CCCCC(=O)NCc2ccccc2)c1C
[1]
  GI50: 2.4 µM
  TGI: 6.69 µM
[2]
  GI50: 15.5 µM
  TGI: 35.3 µM
[3]
  GI50: 3.56 µM
  TGI: 16.9 µM
[4]
  GI50: 2.49 µM
  TGI: 8.11 µM
[5]
  GI50: 2100 nM
  TGI: 7.12 µM
[6]
  GI50: 2540 nM
  TGI: 13.4 µM
[7]
  GI50: 673 nM
  TGI: 6.98 µM
[8]
  GI50: 2.37 µM
[9]
  GI50: 1.64 µM
  TGI: 3.53 µM
[10]
  GI50: 4.2 µM
  TGI: 18.1 µM
[11]
  GI50: 3.16 µM
  TGI: 12.2 µM
[12]
  GI50: 1510 nM
  TGI: 2.83 µM
[13]
  GI50: 0.845 µM
  TGI: 2250 nM
[14]
  GI50: 2.2 µM
  TGI: 7.33 µM
[15]
  GI50: 2.87 µM
  TGI: 10.2 µM
[16]
  GI50: 1.65 µM
  TGI: 4.63 µM
[17]
  GI50: 1.98 µM
  TGI: 4.43 µM
[18]
  GI50: 0.723 µM
  TGI: 5.67 µM
[19]
  GI50: 3.36 µM
  TGI: 14.7 µM
[20]
  GI50: 1.73 µM
  TGI: 4.72 µM
[21]
  GI50: 1380 nM
  TGI: 3.02 µM
[22]
  GI50: 1.43 µM
  TGI: 2.77 µM
[23]
  GI50: 2.68 µM
  TGI: 7.36 µM
[24]
  GI50: 2.56 µM
  TGI: 5.57 µM
[25]
  GI50: 1.6 µM
  TGI: 3.44 µM
[26]
  GI50: 1.61 µM
  TGI: 7.56 µM
[27]
  GI50: 1.61 µM
  TGI: 3.72 µM
[28]
  GI50: 1090 nM
  TGI: 3.09 µM
[29]
  GI50: 2.73 µM
  TGI: 10.9 µM
[30]
  GI50: 2.47 µM
  TGI: 11 µM
[31]
  GI50: 1.99 µM
  TGI: 5.34 µM
[32]
  GI50: 1950 nM
  TGI: 6.09 µM
[33]
  GI50: 2.17 µM
  TGI: 5.36 µM
[34]
  GI50: 1.43 µM
  TGI: 2.89 µM
[58]
  GI50: 6.31 µM
  TGI: 23.4 µM
[35]
  GI50: 7.18 µM
  TGI: 21.3 µM
[36]
  GI50: 5.85 µM
  TGI: 23.3 µM
[37]
  GI50: 1.57 µM
  TGI: 3.99 µM
[38]
  GI50: 2.56 µM
  TGI: 6.52 µM
[39]
  GI50: 1900 nM
  TGI: 4.58 µM
[40]
  GI50: 1.82 µM
  TGI: 6.04 µM
[41]
  GI50: 1.87 µM
  TGI: 7.23 µM
[42]
  GI50: 4.66 µM
  TGI: 15.8 µM
[44]
  GI50: 2.07 µM
  TGI: 4.64 µM
[45]
  GI50: 10.8 µM
  TGI: 23.4 µM
[46]
  GI50: 14.8 µM
  TGI: 31.1 µM
[47]
  GI50: 3.82 µM
  TGI: 18.4 µM
[48]
  GI50: 8.76 µM
  TGI: 24 µM
[49]
  GI50: 3.72 µM
  TGI: 15.1 µM
[50]
  GI50: 1.14 µM
  TGI: 3.3 µM
[51]
  GI50: 1.06 µM
  TGI: 2.58 µM
[52]
  GI50: 2.34 µM
  TGI: 7.23 µM
[53]
  GI50: 2.15 µM
  TGI: 4.63 µM
[54]
  GI50: 1.43 µM
  TGI: 2.95 µM
[55]
  GI50: 18.6 µM
  TGI: 38.5 µM
[56]
  GI50: 8.85 µM
  TGI: 22.8 µM
[57]
  GI50: 2.26 µM
  TGI: 8.81 µM

Source: PubChem BioAssay (NCI)
